Target: T1, human mAChR M4 (Homo sapiens, UniProt P08173)
T1 construct: expressed in transfected cells; host or cells: CHO-K1 (American Type Culture Collection), stably expressing hM4 and Gqi5
T1 sequence (P08173 1-479): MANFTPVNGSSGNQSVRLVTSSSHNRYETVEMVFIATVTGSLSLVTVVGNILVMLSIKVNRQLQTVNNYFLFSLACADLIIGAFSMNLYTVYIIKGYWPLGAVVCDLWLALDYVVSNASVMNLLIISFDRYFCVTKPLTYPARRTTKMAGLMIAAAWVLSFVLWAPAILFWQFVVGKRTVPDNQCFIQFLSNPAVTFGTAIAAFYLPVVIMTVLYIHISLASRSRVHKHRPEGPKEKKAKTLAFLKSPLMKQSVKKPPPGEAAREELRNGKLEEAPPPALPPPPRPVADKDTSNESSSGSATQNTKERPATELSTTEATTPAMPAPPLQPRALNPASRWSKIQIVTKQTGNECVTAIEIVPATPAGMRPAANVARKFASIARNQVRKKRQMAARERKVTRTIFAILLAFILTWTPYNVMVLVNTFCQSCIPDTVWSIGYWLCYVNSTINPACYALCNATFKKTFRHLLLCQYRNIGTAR
Assay: mAChR M4 cell-based functional assay: calcium mobilization (Fluo-4, FDSS), potentiation of EC20 acetylcholine response in hM4-Gqi5 CHO-K1 cells
Conditions: human M4; for Emax at 30 µM: CHO-K1, % ACh maximum at 30 μM; for EC50: potentiation of EC20 acetylcholine response, calcium mobilization; for Emax (%)*: % ACh maximum at 30 μM
Experimental: Human and rat M4 cDNAs, along with the chimeric G protein Gqi5, were transfected into Chinese hamster ovary (CHO-K1) cells purchased from the American Type Culture Collection using Lipofectamine2000. hM4-Gqi5 cells were grown in Ham's F-12 medium containing 10% heat-inactivated fetal bovine serum (FBS), 20 mM HEPES, 50 μg/mL G418 sulfate, and 500 μg/mL Hygromycin B. rM4-Gqi5 cells were grown in DMEM containing 10% heat-inactivated FBS, 20 mM HEPES, 400 μg/mL G418 sulfate, and 500 μg/mL Hygromycin B.
For high throughput measurement of agonist-evoked increases in intracellular calcium, CHO-K1 cells stably expressing muscarinic receptors were plated in growth medium lacking G418 and hygromycin at 15,000 cells/20 μL/well in Greiner 384-well black-walled, tissue culture (TC)-treated, clear-bottom plates (VWR). Cells were incubated overnight at 37° C. and 5% CO2. The next day, cells were washed using an ELX 405 (BioTek) with assay buffer; the final volume was then aspirated to 20 μL. Next, 20 μL of a […] of Fluo-4/acetoxymethyl ester (Invitrogen, Carlsbad, CA), prepared as a 2.3 mM stock in DMSO and mixed in a 1:1 ratio with 10% (w/v) Pluronic F-127 and diluted in assay buffer, was added to the wells and the cell plates were incubated for 50 min at 37° C. and 5% CO2. Dye was removed by washing with the ELX 405 and the final volume was aspirated to 20 μL. Compound master plates were formatted in an 11 point concentration-response curve (CRC) format (1:3 dilutions) in 100% DMSO with a starting concentration of 10 mM using a BRAVO liquid handler (Agilent). Test compound CRCs were then transferred to daughter plates (240 nL) using the Echo acoustic plate reformatter (Labcyte, Sunnyvale, CA) and then diluted into assay buffer (40 μL) to a 2× stock using a Thermo Fisher Combi (Thermo Fisher Scientific, Waltham, MA).
Calcium flux was measured using the Functional Drug Screening System (FDSS) 6000 or 7000 (Hamamatsu Corporation, Tokyo, Japan) as an increase in the fluorescent static ratio. Compounds were applied to cells (20 μL, 2X) using the automated system of the FDSS at 2-4 seconds into the protocol and the data were collected at 1 Hz. At 144 seconds, 10 μL of an EC20 concentration of the muscarinic receptor agonist acetylcholine was added (5×), followed by the addition of 12 μL of an […] concentration of acetylcholine at the 230 second time point (5×). Agonist activity was analyzed as a concentration-dependent increase in calcium mobilization upon compound addition. Positive allosteric modulator activity was analyzed as a concentration-dependent increase in the EC20 acetylcholine response. Antagonist activity was analyzed as a concentration-dependent decrease in the EC20 acetylcholine response. Concentration-response curves were generated using a four-parameter logistical equation in XLFit curve fitting software (IDBS, Bridgewater, NJ) for Excel (Microsoft, Redmond, WA) or Prism (GraphPad Software, Inc., San Diego, CA).
Compounds were synthesized as described above. Activity (EC50 and Emax) was determined in the mAChR M4 cell-based functional assay as described above and the data are shown in Table 4. The compound number corresponds to the compound numbers used in Tables 1-3.

Emax at 30 µM	EC50	Emax (%)*	Compound
106%	325 nM		COCc1cc(=O)n2nc(N3Cc4cc(C(F)(F)F)cnc4C(C)C3)c(C)c(C)c2n1 (single isomer, unassigned) [Compound 1-376]
	365 nM	112%	COCc1cc(=O)n2nc(N3Cc4cc(C(F)(F)F)cnc4C(C)C3)c(C)c(C)c2n1 (single isomer, unassigned) [Compound 1-377]
	1730 nM	42%	Cc1c(N2CCc3ncc(C(F)(F)F)cc3C2C)nn2c(=O)ccnc2c1C (single isomer, unassigned) [Compound 1-385, 8,9-dimethyl-7-(5-methyl-3-(trifluoromethyl)-7,8-dihydro-1,6-naphthyridin-6(5H)-yl)-4H-pyrimido[1,2-b] pyridazin-4-one]
	950 nM	80%	Cc1c(N2CCc3ncc(C(F)(F)F)cc3C2C)nn2c(=O)ccnc2c1C (single isomer, unassigned) [Compound 1-386, 8,9-dimethyl-7-(5-methyl-3-(trifluoromethyl)-7,8-dihydro-1,6-naphthyridin-6(5H)-yl)-4H-pyrimido[1,2-b] pyridazin-4-one]
87%			Cc1cc2nccc(=O)n2nc1N1CCc2ncc(N3CCOC(c4ccccc4)C3)cc2C1 (stereo in doubt) [Compound 2-73, (S)-8-methyl-7-(3-(2-phenylmorpholino)-7,8-dihydro-1,6-naphthyridin-6(5H)-yl)-4H-pyrimido[1,2-b]pyridazin-4-one]
42%	1430 nM		Cc1cc2nccc(=O)n2nc1N1CCc2ncc(N3CCOC(c4ccccc4)C3)cc2C1 (stereo in doubt) [Compound 2-96, (R)-8-methyl-7-(3-(2-phenylmorpholino)-7,8-dihydro-1,6-naphthyridin-6(5H)-yl)-4H-pyrimido[1,2-b]pyridazin-4-one]
81%	300 nM		Cc1cc2nccc(=O)n2nc1N1CCc2ncc(C(F)(F)F)cc2C1 [Compound 1-1, 8-methyl-7-(3-(trifluoromethyl)-7,8-dihydro-1,6-naphthyridin-6(5H)-yl)-4H-pyrimido[1,2-b]pyridazin-4-one]
87%	501 nM		Cc1cc2nccc(=O)n2nc1N1CCc2ncc(-c3cn(C)nc3C)cc2C1 [Compound 1-2, 7-(3-(1,3-dimethyl-1H-pyrazol-4-yl)-7,8-dihydro-1,6-naphthyridin-6(5H)-yl)-8-methyl-4H-pyrimido[1,2-b]pyridazin-4-one]
76%	99 nM		Cc1ccc(-c2cnc3c(c2)CN(c2nn4c(=O)ccnc4cc2C)CC3)cn1 [Compound 1-3, 8-methyl-7-(3-(6-methylpyridin-3-yl)-7,8-dihydro-1,6-naphthyridin-6(5H)-yl)-4H-pyrimido[1,2-b]pyridazin-4-one]
96%	181 nM		Cc1cc2ncc(Cl)c(=O)n2nc1N1CCc2ncc(C(F)(F)F)cc2C1 [Compound 1-4, 3-chloro-8-methyl-7-(3-(trifluoromethyl)-7,8-dihydro-1,6-napthyridin-6(5H)-yl)-4H-pyrimido[1,2-b]pyridazin-4-one]
86%	422 nM		Cc1ncc(-c2cnc3c(c2)CN(c2nn4c(=O)ccnc4cc2C)CC3)s1 [Compound 1-5, 8-methyl-7-(3-(2-methylthiazol-5-yl)-7,8-dihydro-1,6-naphthyridin-6(5H)-yl)-4H-pyrimido[1,2-b]pyridazin-4-one]
83%	736 nM		Cc1cc2nccc(=O)n2nc1N1CCc2ncc(-c3cnn(C)c3)cc2C1 [Compound 1-6, 8-methyl-7-(3-(1-methyl-1H-pyrazol-4-yl)-7,8-dihydro-1,6-naphthyridin-6(5H)-yl)-4H-pyrimido[1,2-b]pyridazin-4-one]
81%	308 nM		Cc1cc2nccc(=O)n2nc1N1CCc2ncc(-c3cnn(C4CC4)c3)cc2C1 [Compound 1-8, 7-(3-(1-cyclopropyl-1H-pyrazol-4-yl)-7,8-dihydro-1,6-naphthyridin-6(5H)-yl)-8-methyl-4H-pyrimido[1,2-b]pyridazin-4-one]
75%	25 nM		Cc1cc2ncc(Cl)c(=O)n2nc1N1CCc2ncc(C3CC3)cc2C1 [Compound 1-9, 3-chloro-7-(3-cyclopropyl-7,8-dihydro-1,6-naphthyridin-6(5H)-yl)-8-methyl-4H-pyrimido[1,2-b]pyridazin-4-one]
86%	162 nM		Cc1cc2ncc(Cl)c(=O)n2nc1N1CCc2ncc(-c3ccnn3C)cc2C1 [Compound 1-10, 3-chloro-8-methyl-7-(3-(1-methyl-1H-pyrazol-5-yl)-7,8-dihydro-1,6-naphthyridin-6(5H)-yl)-4H-pyrimido[1,2-b]pyridazin-4-one]
92%	158 nM		Cc1cc2ncc(Cl)c(=O)n2nc1N1CCc2ncc(-c3cn(C)nc3C)cc2C1 [Compound 1-11, 3-chloro-7-(3-(1,3-dimethyl-1H-pyrazol-4-yl)-7,8-dihydro-1,6-naphthyridin-6(5H)-yl)-8-methyl-4H-pyrimido[1,2-b]pyridazin-4-one]
80%	127 nM		Cc1cc2ncc(Cl)c(=O)n2nc1N1CCc2ncc(-c3cnn(C4CC4)c3)cc2C1 [Compound 1-12, 3-chloro-7-(3-(1-cyclopropyl-1H-pyrazol-4-yl)-7,8-dihydro-1,6-naphthyridin-6(5H)-yl)-8-methyl-4H-pyrimido[1,2-b]pyridazin-4-one]
79%	373 nM		Cc1ncc(-c2cnc3c(c2)CN(c2nn4c(=O)c(Cl)cnc4cc2C)CC3)s1 [Compound 1-13, 3-chloro-8-methyl-7-(3-(2-methylthiazol-5-yl)-7,8-dihydro-1,6-naphthyridin-6(5H)-yl)-4H-pyrimido[1,2-b]pyridazin-4-one]
77%	69 nM		Cc1ccc(-c2cnc3c(c2)CN(c2nn4c(=O)c(Cl)cnc4cc2C)CC3)cn1 [Compound 1-14, 3-chloro-8-methyl-7-(3-(6-methylpyridin-3-yl)-7,8-dihydro-1,6-naphthyridin-6(5H)-yl)-4H-pyrimido[1,2-b]pyridazin-4-one]
73%	136 nM		Cc1cc2nc(C)c(F)c(=O)n2nc1N1CCc2ncc(C(F)(F)F)cc2C1 [Compound 1-15, 3-fluoro-2,8-dimethyl-7-(3-(trifluoromethyl)-7,8-dihydro-1,6-naphthyridin-6(5H)-yl)-4H-pyrimido[1,2-b]pyridazin-4-one]
71%	340 nM		Cc1cc(=O)n2nc(N3CCc4ncc(C(F)(F)F)cc4C3)c(C)cc2n1 [Compound 1-16, 2,8-dimethyl-7-(3-(trifluoromethyl)-7,8-dihydro-1,6-naphthyridin-6(5H)-yl)-4H-pyrimido[1,2-b]pyridazin-4-one]
79%	105 nM		Cc1cc2nc(C(F)(F)F)cc(=O)n2nc1N1CCc2ncc(C(F)(F)F)cc2C1 [Compound 1-17, 8-methyl-2-(trifluoromethyl)-7-(3-(trifluoromethyl)-7,8-dihydro-1,6-naphthyridin-6(5H)-yl)-4H-pyrimido[1,2-b]pyridazin-4-one]

Source: patent US20250101041A1, “POSITIVE ALLOSTERIC MODULATORS OF THE MUSCARINIC ACETYLCHOLINE RECEPTOR M4” (Vanderbilt University, priority 2022, published 2025)
